Data taken from US7776558B2, “Human G protein-coupled receptor and modulators thereof for the treatment of cell death-related disorders” (Arena Pharmaceuticals, Inc., priority 2003, dated 2010).
Entries after “also recorded” stand apart in the source; their conditions may differ. Where no end group is shown, it is not given here.

Experiments:
[1] = target: T1, FPRL2 (Homo sapiens, UniProt P25089); test: IP3 assay, HEK293 cells transiently transfected with FPRL2 and Gα16; type: cell-based; set-up: expressed in transfected cells; host or cells: HEK293 cells, transient, lipofectamine; conditions: FIG. 8
T1 sequence (P25089 1-353): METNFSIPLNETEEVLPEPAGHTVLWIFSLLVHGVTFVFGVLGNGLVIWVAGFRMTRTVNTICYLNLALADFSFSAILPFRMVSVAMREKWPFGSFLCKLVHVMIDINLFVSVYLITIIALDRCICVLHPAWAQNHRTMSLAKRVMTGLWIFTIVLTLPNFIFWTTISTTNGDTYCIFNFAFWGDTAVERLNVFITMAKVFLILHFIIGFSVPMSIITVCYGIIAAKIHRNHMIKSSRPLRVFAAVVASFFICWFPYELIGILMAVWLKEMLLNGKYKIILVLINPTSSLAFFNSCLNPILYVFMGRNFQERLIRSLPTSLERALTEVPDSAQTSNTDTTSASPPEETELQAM
Description: On day 1, cells comprising the receptors (endogenous and/or non-endogenous) can be plated onto 24 well plates, usually 1×10^5 cells/well (although his umber can be optimized. On day 2 cells can be transfected by firstly mixing 0.25 μg DNA in 50 μl serum free DMEM/well and 2 μl lipofectamine in 50 μl serum free DMEM/well. The solutions are gently mixed and incubated for 15-30 min at room temperature. Cells are washed with 0.5 ml PBS and 400 μl of serum free media is mixed with the transfection media and added to the cells. The cells are then incubated for 3-4 […] at 37° C./5% CO2 and then the transfection media is removed and replaced with 1 ml/well of regular growth media. On day 3 the cells are labeled with ^3H-myo-inositol. Briefly, the media is removed and the cells are washed with 0.5 ml PBS. Then 0.5 ml inositol-free/serum free media (GIBCO BRL) is added/well with 0.25 μCi of ^3H-myo-inositol/well and the cells are incubated for 16-18 hrs o/n at 37° C./5% CO2. On Day 4 the cells are washed with 0.5 ml PBS and 0.45 ml of assay medium is added containing inositol-free/serum free media 10 μM pargyline 10 mM lithium chloride or 0.4 ml of assay medium and 50 μl of 10× ketanserin (ket) to final concentration of 10 μM. The cells are then incubated for 30 min at 37° C. The cells are then washed with 0.5 ml PBS and 200 μl of fresh/ice cold stop solution (1M KOH; 18 mM Na-borate; 3.8 mM EDTA) is added/well. The solution is kept on ice for 5-10 min or until cells were lysed and then neutralized by 200 μl of fresh/ice cold neutralization sol. (7.5% HCL). The lysate is then transferred into 1.5 ml eppendorf tubes and 1 ml of chloroform/methanol (1:2) is added/tube. The solution is vortexed for 15 sec and the upper phase is applied to a Biorad AG1-X8™ anion exchange resin (100-200 mesh). […]
Briefly, HEK293 cells were transiently transfected with 6 μg FPRL2 plasmid DNA and 6 μg Gα16 plasmid DNA per 10^7 cells per 15 cm culture dish using lipofectamine (Invitrogen). […] The level of intracellular IP3 was determined as described in Example 4, supra.

[2] = target: T1, FPRL2; test: Whole cell adenylate cyclase (cAMP) assay, stably transfected HEK293 cells; type: cell-based; set-up: expressed in transfected cells; conditions: in the presence of 5 μM forskolin, FIG. 6
From the text: A Flash Plate™ Adenylyl Cyclase kit (New England Nuclear; Cat. No. SMP004A) designed for cell-based assays can be modified for use with crude plasma membranes. The Flash Plate wells can contain a scintillant coating which also contains a specific antibody recognizing cAMP. The cAMP generated in the wells can be quantitated by a direct competition for binding of radioactive cAMP tracer to the cAMP antibody. The following serves as a brief protocol for the measurement of changes in cAMP levels in whole cells that express the receptors.
Transfected cells are harvested approximately twenty four hours after transient transfection. Media is carefully aspirated off and discarded. 10 ml of PBS is gently added to each dish of cells followed by careful aspiration. 1 ml of Sigma cell dissociation buffer and 3 ml of PBS are added to each plate. Cells are pipetted off the plate and the cell suspension is collected into a 50 ml conical centrifuge tube. Cells are then centrifuged at room temperature at 1,100 rpm for 5 min. The cell pellet is carefully re-suspended into an appropriate volume of PBS (about 3 ml/plate). The cells are then counted using a hemocytometer and additional PBS is added to give the appropriate number of cells (with a final volume of about 50 μl/well).
cAMP standards and Detection Buffer (comprising 1 μCi of tracer [^125I cAMP (50 μl] to 11 ml Detection Buffer) is prepared and maintained in accordance with the manufacturer's instructions. Assay Buffer is prepared fresh for screening and contains 50 μl of Stimulation Buffer, 3 ul of test compound (12 μM final assay concentration) and 50 μl cells, Assay Buffer is stored on ice until utilized. The assay is initiated by addition of 50 μl of cAMP standards to appropriate wells followed by addition of 50 ul of PBSA to wells H-11 and H12. 50 μl of Stimulation Buffer is added to all wells. DMSO (or selected candidate compounds) is added to appropriate wells using a pin tool capable of dispensing 3 μl of compound solution, with a final assay concentration of 12 μM test compound and 100 μl total assay volume. The cells are then added to the wells and incubated for 60 min at room temperature. 100 μl of Detection Mix containing tracer cAMP is then added to the wells. Plates are then incubated additional 2 hours followed by counting in a Wallac MicroBeta scintillation counter. Values of cAMP/well are then extrapolated from a standard cAMP curve which is contained within each assay plate.
In FIG. 6, agonist activity was determined through adenylate cyclase activity. […] Samples were then assessed for the level of intracellular cAMP as described in Example 4, supra.

[3] = test system: neuronal cells; conditions: cited from earlier work

Molecule | Level of intracellular IP3 (FPRL2 coupling to Gα16) [1] | Agonist activity at FPRL2, intracellular cAMP [2] | Protection of neuronal cells from toxic insults ([3]; Alzheimer's disease-relevant toxicity, three mutant FAD genes and Aβ) | Rescue of cortical neurons from prion-peptide-induced apoptosis ([3]; Sponne et al. 2004) | Protective activity for neurons against serum deprivation ([3]; Takahashi et al. 2002) | Agonist activity at FPRL2, intracellular cAMP ([2]; listed as Human) | Activity relative to Humanin ([3]; Niikura et al. 2002)
CC(C)c1ccc2c(c1)CCC1C(C)(C(N)=O)CCCC21C (centres unmarked) [Compound 1, 7-Isopropyl-1,4a-dimethyl-1,2,3,4,4a,9,10,10a-octahydro-phenanthrene-1-carboxylic acid amide] | dose-dependent elevation of the level of intracellular IP3 | selectively an agonist of FPRL2 |  |  |  |  | 
CC[C@H](C)[C@H](NC(=O)[C@H](CCC(=O)O)NC(=O)[C@H](CO)NC(=O)[C@@H](NC(=O)[C@H](CC(C)C)NC(=O)[C@H](CC(C)C)NC(=O)[C@H](CC(C)C)NC(=O)[C@H](CC(C)C)NC(=O)[C@H](CS)NC(=O)[C@H](CO)NC(=O)[C@H](Cc1ccccc1)NC(=O)CNC(=O)[C@H](CCCNC(=N)N)NC(=O)[C@@H]1CCCN1C(=O)[C@H](C)NC(=O)[C@@H](N)CCSC)[C@@H](C)O)C(=O)N[C@@H](CC(=O)O)C(=O)N[C@@H](CC(C)C)C(=O)N1CCC[C@H]1C(=O)N[C@H](C(=O)N[C@@H](CCCCN)C(=O)N[C@@H](CCCNC(=N)N)C(=O)N[C@@H](CCCNC(=N)N)C(=O)N[C@@H](C)C(=O)O)C(C)C [Humanin] | dose-dependent elevation of the level of intracellular IP3 | agonists of both FPRL1 and FPRL2 | protect neuronal cells from Alzheimer's disease-relevant toxicity; also recorded: protect neuronal cells from a number of toxic insults | rescue cortical neurons from prion-peptide-induced apoptosis | protective activity for neurons against serum deprivation | agonists of both FPRL2 and FPRL1 | 
MAPRGFSCLLLLTGEIDLPVKRRA [[Gly14]-Humanin] | dose-dependent elevation of the level of intracellular IP3 | agonists of both FPRL1 and FPRL2; also recorded: agonists of both FPRL2 and FPRL1 |  |  |  |  | significantly more active than Humanin
